In ChEMBL document CHEMBL2203204, “Identification of selective inhibitors of indoleamine 2,3-dioxygenase 2” (Bioorg Med Chem Lett, 2012):
Activity calls are given as the source filed them. The rule behind the calls is not given here.

Columns and labels:
[1] = molecular target: T1, Indoleamine 2,3-dioxygenase 2 (Mus musculus) (UniProt Q8R0V5); conditions: HEK-293T, at 20 µM
T1 sequence (whole entry): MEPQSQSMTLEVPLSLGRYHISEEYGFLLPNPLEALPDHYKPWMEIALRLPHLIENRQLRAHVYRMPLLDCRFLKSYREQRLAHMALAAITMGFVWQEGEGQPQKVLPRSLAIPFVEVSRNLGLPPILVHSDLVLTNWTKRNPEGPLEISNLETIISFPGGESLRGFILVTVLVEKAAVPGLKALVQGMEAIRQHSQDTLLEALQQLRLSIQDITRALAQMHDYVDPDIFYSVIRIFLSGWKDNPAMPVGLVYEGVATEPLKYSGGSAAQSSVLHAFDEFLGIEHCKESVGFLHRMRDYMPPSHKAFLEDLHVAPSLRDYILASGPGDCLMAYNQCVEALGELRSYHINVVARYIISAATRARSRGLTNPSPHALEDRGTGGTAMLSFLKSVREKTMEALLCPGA
Description: (§1) Inhibition of mouse Ido2 transfected in HEK293T cells using L-tryptophan as substrate assessed as kynurenine formation at 20 uM after 45 mins by spectrophotometric analysis relative to control

[2] = molecular target: Indoleamine 2,3-dioxygenase 1 (Mus musculus, UniProt P28776); assay: Inhibition of mouse Ido1 transfected in HEK293T cells using L-tryptophan as substrate assessed as kynurenine formation after 45 mins by spectrophotometric analysis; assay type: cell-based, HEK-293T
Indoleamine 2,3-dioxygenase 1, sequence (P28776 whole entry): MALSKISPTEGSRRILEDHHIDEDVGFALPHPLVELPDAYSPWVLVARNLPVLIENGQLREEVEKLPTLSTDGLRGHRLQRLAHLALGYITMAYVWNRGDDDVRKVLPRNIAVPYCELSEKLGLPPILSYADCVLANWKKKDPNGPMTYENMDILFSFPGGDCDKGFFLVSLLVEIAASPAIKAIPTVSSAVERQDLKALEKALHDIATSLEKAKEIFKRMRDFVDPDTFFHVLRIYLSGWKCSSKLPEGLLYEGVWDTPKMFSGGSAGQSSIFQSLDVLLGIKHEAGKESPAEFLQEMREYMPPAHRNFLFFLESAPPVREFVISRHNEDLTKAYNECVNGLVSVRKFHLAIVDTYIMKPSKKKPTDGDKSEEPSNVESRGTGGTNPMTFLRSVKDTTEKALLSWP

[3] = molecular target: T2, Indoleamine 2,3-dioxygenase 2 (Mus musculus, UniProt Q8R0V5); assay: Inhibition of mouse Ido2 transfected in HEK293T cells using L-tryptophan as substrate assessed as kynurenine formation after 45 mins by spectrophotometric analysis; assay type: cell-based, HEK-293T
T2 sequence (Q8R0V5 whole entry): T1 sequence (whole entry)

HEK-293T = assay: Cytotoxicity against HEK293T cells assessed as decrease in cell viability at 25 uM after 24 hrs by trypan blue exclusion assay; assay type: cell-based; conditions: human
[4] = molecular target: Tryptophan 2,3-dioxygenase (Mus musculus) (UniProt P48776); assay: Inhibition of mouse Tdo2 transfected in HEK293T cells using L-tryptophan as substrate assessed as kynurenine formation at 100 uM after 45 mins by spectrophotometric analysis relative to control; assay type: cell-based; conditions: HEK-293T
Tryptophan 2,3-dioxygenase (Mus musculus), sequence (P48776 whole entry): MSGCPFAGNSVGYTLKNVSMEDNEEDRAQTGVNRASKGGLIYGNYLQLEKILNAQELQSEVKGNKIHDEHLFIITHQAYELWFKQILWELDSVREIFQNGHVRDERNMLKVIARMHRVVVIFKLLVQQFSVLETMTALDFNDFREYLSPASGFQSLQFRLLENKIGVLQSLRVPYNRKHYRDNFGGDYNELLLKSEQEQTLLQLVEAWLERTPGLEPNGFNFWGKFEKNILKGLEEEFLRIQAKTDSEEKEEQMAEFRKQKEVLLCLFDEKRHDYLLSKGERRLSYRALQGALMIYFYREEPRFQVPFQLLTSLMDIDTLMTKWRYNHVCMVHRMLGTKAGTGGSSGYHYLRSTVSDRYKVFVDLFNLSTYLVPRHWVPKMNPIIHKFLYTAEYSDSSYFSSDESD

[5] = molecular target: Indoleamine 2,3-dioxygenase 2 (Mus musculus) (UniProt Q8R0V5); conditions: HEK-293T, at 20 µM; remark: listed apart in the source
Description: as §1

Mus musculus = species on record: Mus musculus; assay: Selectivity ratio of IC50 for mouse Ido1 to IC50 for mouse Ido2
[6] = molecular target: Indoleamine 2,3-dioxygenase 1 (Mus musculus) (UniProt P28776); assay: Inhibition of mouse Ido1 transfected in HEK293T cells using L-tryptophan as substrate assessed as residual activity at 100 uM after 45 mins by spectrophotometric analysis relative to control; assay type: cell-based; conditions: HEK-293T
Indoleamine 2,3-dioxygenase 1 (Mus musculus), sequence (P28776 whole entry, looked up): as the sequence (P28776 whole entry) above

[7] = molecular target: T1, Indoleamine 2,3-dioxygenase 2 (Mus musculus); assay: Inhibition of mouse Ido2 transfected in HEK293T cells using L-tryptophan as substrate assessed as assessed as residual activity at 100 uM after 45 mins by spectrophotometric analysis relative to control; assay type: cell-based; conditions: HEK-293T

## CC1=C(C)C(=O)C(CCCCC#CCCCC#CCO)=C(C)C1=O
[1]
  inhibition: > 55%

## CC(c1cc2ccccc2s1)N(O)C(N)=O (configuration not stated)
[1]
  inhibition: > 55%

## COCCOC(=O)C1=C(C)NC(C)=C(C(=O)OC/C=C/c2ccccc2)C1c1cccc([N+](=O)[O-])c1 (configuration not stated)
[1]
  inhibition: > 55%

## O=C1Nc2ccc(Cl)cc2[C@@](C#CC2CC2)(C(F)(F)F)O1
[1]
  inhibition: > 55%

## Clc1ccc(CO/N=C(\Cn2ccnc2)c2ccc(Cl)cc2Cl)c(Cl)c1
[1]
  inhibition: > 55%

## COc1cc2c(cc1OC)-c1c/c(=N\c3c(C)cc(C)cc3C)n(C)c(=O)n1CC2
[1]
  inhibition: > 55%

## COC(=O)Nc1nc2cc([S+]([O-])c3ccccc3)ccc2[nH]1 (configuration not stated)
[1]
  inhibition: > 55%

## COC(=O)Nc1nc2cc(C(=O)c3ccccc3)ccc2[nH]1
[1]
  inhibition: > 55%

## COc1ccccc1OCCNCC(O)COc1cccc2[nH]c3ccccc3c12 (configuration not stated)
[1]
  inhibition: > 55%

## OCCN(CCO)c1nc(N2CCCCC2)c2nc(N(CCO)CCO)nc(N3CCCCC3)c2n1
[1]
  inhibition: > 55%

## CC#CCC(C)[C@H](O)/C=C/[C@@H]1[C@H]2C/C(=C/CCCC(=O)O)C[C@H]2C[C@H]1O (some centres not stated)
[1]
  inhibition: > 55%

## COc1cc2nc(N(C)CCCNC(=O)C3CCCO3)nc(N)c2cc1OC (configuration not stated)
[1]
  inhibition: > 55%

## CCN(CC)C(=S)SSC(=S)N(CC)CC
[1]
  inhibition: > 55%

## CCCc1nc2c(C)cc(-c3nc4ccccc4n3C)cc2n1Cc1ccc(-c2ccccc2C(=O)O)cc1
[1]
  inhibition: > 55%

## Clc1ccc(C(Cn2ccnc2)OCc2csc3c(Cl)cccc23)c(Cl)c1 (configuration not stated)
[1]
  inhibition: > 55%

## c1ccc(-c2ccc(C(c3ccccc3)n3ccnc3)cc2)cc1 (configuration not stated)
[1]
  inhibition: > 55%

## CC1=C(/C=C/C(C)=C/C=C/C(C)=C/C(=O)Nc2ccc(O)cc2)C(C)(C)CCC1 [FENRETINIDE]
[2]
  IC50: 59.9 µM
[3]
  IC50: 18.7 µM
HEK-293T
  Activity: Non-toxic
[1]
  inhibition: > 55%
[4]
  inhibition: 32%

## CCC[S+]([O-])c1ccc2[nH]c(NC(=O)OC)nc2c1 (configuration not stated)
[1]
  inhibition: > 55%

## CC(C)C[C@H]1C(=O)N2CCC[C@H]2[C@]2(O)O[C@](NC(=O)[C@@H]3C=C4c5cccc6[nH]c(Br)c(c56)C[C@H]4N(C)C3)(C(C)C)C(=O)N12
[1]
  inhibition: > 55%

## COc1ccnc(C[S+]([O-])c2nc3cc(OC(F)F)ccc3[nH]2)c1OC (configuration not stated)
[4]
  inhibition: inactive

## CCCc1nn(C)c2c(=O)[nH]c(-c3cc(S(=O)(=O)N4CCN(C)CC4)ccc3OCC)nc12 [SILDENAFIL]
[2]
  IC50: > 100 µM
[3]
  IC50: 4.5 µM
[1]
  inhibition: > 55%
[4]
  inhibition: inactive

## COc1ccnc(C[S+]([O-])c2nc3ccc(OC(F)F)cc3[nH]2)c1OC (configuration not stated) [PANTOPRAZOLE]
[2]
  IC50: 109 µM
[3]
  IC50: 12.6 µM

## Clc1ccc(C(Cn2ccnc2)OCc2ccsc2Cl)c(Cl)c1 (configuration not stated)
[1]
  inhibition: > 55%

## CCOC(=O)C1=C(C)NC(C)=C(C(=O)OCC)C1c1ccccc1/C=C/C(=O)OC(C)(C)C
[1]
  inhibition: > 55%

## O=C(O)Cc1sc(-c2ccccc2)nc1-c1ccc(Cl)cc1
[1]
  inhibition: > 55%

## Clc1ccc(COC(Cn2ccnc2)c2ccc(Cl)cc2Cl)cc1 (configuration not stated) [ECONAZOLE]
[2]
  IC50: 11.2 µM
[3]
  IC50: 7.6 µM
[4]
  inhibition: > 95%

## NC[C@H]1CC[C@H](C(=O)O)CC1
[1]
  inhibition: > 55%

## Cc1c(OCC(F)(F)F)ccnc1C[S+]([O-])c1nc2ccccc2[nH]1 (configuration not stated) [LANSOPRAZOLE]
[2]
  IC50: 94 µM
[3]
  IC50: 8.2 µM
HEK-293T
  Activity: Non-toxic
[4]
  inhibition: < 20%

## CCN(CC)CCCC(C)Nc1c2ccc(Cl)cc2nc2ccc(OC)cc12 (configuration not stated)
[1]
  inhibition: > 55%

## Clc1ccc(CSC(Cn2ccnc2)c2ccc(Cl)cc2Cl)cc1 (configuration not stated) [SULCONAZOLE]
[2]
  IC50: 29.3 µM
[3]
  IC50: 10.1 µM
[4]
  inhibition: > 95%

## CCOC(=O)C1=C(C)NC(C)=C(C(=O)OC)C1c1cccc([N+](=O)[O-])c1 (configuration not stated)
[1]
  inhibition: > 55%

## C[C@@H]1CC[C@H]2[C@@H](C)C(=O)O[C@@H]3O[C@@]4(C)CC[C@@H]1[C@]32OO4
[1]
  inhibition: > 55%

## CCOC(=O)C1=C(C)NC(C)=C(C(=O)OC)C1c1cccc(Cl)c1Cl (configuration not stated)
[1]
  inhibition: > 55%

## CCCCCN(CCCCC)C(=O)C(CCC(=O)O)NC(=O)c1ccc(Cl)c(Cl)c1 (configuration not stated)
[1]
  inhibition: > 55%

## C[C@H](CS)C(=O)N1CCC[C@H]1C(=O)O
[1]
  inhibition: > 55%

## COC(=O)C1=C(C)NC(C)=C(C(=O)OCC(C)C)C1c1ccccc1[N+](=O)[O-] (configuration not stated)
[1]
  inhibition: > 55%

## CN1C[C@H](C(=O)N[C@]2(C)O[C@@]3(O)[C@@H]4CCCN4C(=O)[C@H](Cc4ccccc4)N3C2=O)C=C2c3cccc4[nH]cc(c34)C[C@H]21
[1]
  inhibition: > 55%

## COCCOC(=O)C1=C(C)NC(C)=C(C(=O)OC(C)C)C1c1cccc([N+](=O)[O-])c1 (configuration not stated)
[1]
  inhibition: > 55%

## COC(=O)C1=C(C)NC(C)=C(C(=O)OCCN(C)Cc2ccccc2)C1c1cccc([N+](=O)[O-])c1 (configuration not stated)
[1]
  inhibition: > 55%

## COc1ccc2[nH]c([S+]([O-])Cc3ncc(C)c(OC)c3C)nc2n1 (configuration not stated) [TENATOPRAZOLE]
[2]
  IC50: > 100 µM
[3]
  IC50: 1.8 µM
[1]
  inhibition: > 55%
[4]
  inhibition: inactive

## AURANOFIN
[5]
  inhibition: > 55%

## CCCSc1ccc2[nH]c(NC(=O)OC)nc2c1
[1]
  inhibition: > 55%

## CC[C@@H](C(N)=O)N1CCCC1=O
[1]
  inhibition: > 55%

## CC(C)OC(=O)C(C)(C)Oc1ccc(C(=O)c2ccc(Cl)cc2)cc1
[1]
  inhibition: > 55%

## Clc1ccccc1C(c1ccccc1)(c1ccccc1)n1ccnc1 [CLOTRIMAZOLE]
[2]
  IC50: 51.6 µM
[3]
  IC50: 5.9 µM
[4]
  inhibition: > 95%

## Cc1c(C)c2c(c(C)c1O)CCC(C)(COc1ccc(CC3SC(=O)NC3=O)cc1)O2 (configuration not stated) [TROGLITAZONE]
[2]
  IC50: 61 µM
[3]
  IC50: 4.5 µM
Mus musculus
  Ratio IC50: 14
[1]
  inhibition: > 55%
[4]
  inhibition: < 20%

## COC(=O)C1=C(C)NC(C)=C(C(=O)OC)C1c1ccccc1[N+](=O)[O-] [NIFEDIPINE]
[2]
  IC50: 46 µM
[3]
  IC50: 1.5 µM
Mus musculus
  Ratio IC50: 30
[1]
  inhibition: > 55%
[4]
  inhibition: < 20%

## Clc1ccc(COC(Cn2ccnc2)c2ccc(Cl)cc2Cl)c(Cl)c1 (configuration not stated) [MICONAZOLE]
[2]
  IC50: 17.8 µM
[3]
  IC50: 6.7 µM
HEK-293T
  Activity: Non-toxic
[1]
  inhibition: > 55%
[4]
  inhibition: > 95%

## CC1=C(/C=C/C(C)=C/C=C/C(C)=C/C(=O)O)C(C)(C)CCC1 [TRETINOIN]
[6]
  Activity: 100%
[2]
  IC50: 301 µM
[3]
  IC50: 28.7 µM
Mus musculus
  Ratio IC50: 10
[1]
  inhibition: > 55%
[7]
  Activity: < 5%
[4]
  inhibition: inactive
